Results published in patent US20080009418A1, “Selective Inhibitors” (Alchemia LTD., priority 2004, published 2008).

Experiments:
[1] = molecular target: T1, Human neuropeptide Y (NPY-Y1) (Homo sapiens, UniProt P25929); experiment: Radioligand binding, human neuropeptide Y NPY-Y1 membranes, FlashPlate, [125I]-PYY; conditions: compound at 10 μM, [125I]-PYY
T1 construct: purchased Perkin Elmer Biosignal
T1 sequence (P25929 1-384): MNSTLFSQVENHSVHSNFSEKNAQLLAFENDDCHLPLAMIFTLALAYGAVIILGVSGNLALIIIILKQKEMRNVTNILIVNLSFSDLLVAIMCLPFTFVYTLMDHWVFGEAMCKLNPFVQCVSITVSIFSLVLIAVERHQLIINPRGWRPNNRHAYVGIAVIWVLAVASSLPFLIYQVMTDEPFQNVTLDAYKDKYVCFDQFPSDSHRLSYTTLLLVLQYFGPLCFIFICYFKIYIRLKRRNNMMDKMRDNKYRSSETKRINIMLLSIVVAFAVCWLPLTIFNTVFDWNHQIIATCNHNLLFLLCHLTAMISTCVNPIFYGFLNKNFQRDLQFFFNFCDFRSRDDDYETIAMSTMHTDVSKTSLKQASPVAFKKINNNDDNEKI
Procedure, shortened: (§1)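 Cloned human receptor membranes were coated onto FlashPlate wells and incubated with radioligand and compound (added from a 0.5 mM DMSO daughter plate) for 1 hour at room temperature in the dark. Scintillation counting gave percent inhibition, with DMSO defining total and reference ligand defining non-specific binding.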

Human δ-opioid (DOP) = molecular target: T2, Human δ-opioid (DOP) (Homo sapiens, UniProt P41143); experiment: Radioligand binding, human δ-opioid (DOP) membranes, FlashPlate, [3H]-Bremazocine; conditions: compound at 10 μM, [3H]-Bremazocine
T2 construct: purchased Perkin Elmer Biosignal
T2 sequence (P41143 whole entry): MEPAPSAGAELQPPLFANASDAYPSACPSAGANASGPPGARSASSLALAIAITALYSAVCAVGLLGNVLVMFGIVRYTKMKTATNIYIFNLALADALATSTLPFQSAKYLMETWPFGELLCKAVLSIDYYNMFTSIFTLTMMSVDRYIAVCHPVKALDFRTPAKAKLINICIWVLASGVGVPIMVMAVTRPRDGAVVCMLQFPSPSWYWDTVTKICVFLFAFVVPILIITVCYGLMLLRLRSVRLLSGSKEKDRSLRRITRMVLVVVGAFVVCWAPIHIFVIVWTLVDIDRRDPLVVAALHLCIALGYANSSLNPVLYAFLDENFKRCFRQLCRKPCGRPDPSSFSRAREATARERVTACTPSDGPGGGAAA
Procedure, shortened: as §1

Human neurokinin (NK1) = molecular target: T3, Human neurokinin (NK1) (Homo sapiens, UniProt P25103); experiment: Radioligand binding, human neurokinin NK1 membranes, filtration, [125I]-Substance P; conditions: compound at 10 μM, [125I]-Substance P
T3 construct: purchased Perkin Elmer Biosignal
T3 sequence (P25103 whole entry): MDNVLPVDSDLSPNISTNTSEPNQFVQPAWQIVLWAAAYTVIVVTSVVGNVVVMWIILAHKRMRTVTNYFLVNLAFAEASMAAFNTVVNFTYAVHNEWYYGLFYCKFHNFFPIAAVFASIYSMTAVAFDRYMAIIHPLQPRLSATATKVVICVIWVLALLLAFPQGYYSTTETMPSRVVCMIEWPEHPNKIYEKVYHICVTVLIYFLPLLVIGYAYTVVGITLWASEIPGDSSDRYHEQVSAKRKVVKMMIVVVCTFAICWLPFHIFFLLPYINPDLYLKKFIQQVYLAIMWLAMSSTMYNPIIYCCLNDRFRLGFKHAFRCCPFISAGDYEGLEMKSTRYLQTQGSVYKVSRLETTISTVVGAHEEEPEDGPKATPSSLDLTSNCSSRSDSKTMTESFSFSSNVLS
Procedure, shortened: (§2)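 Membranes from cloned human receptors were incubated with compound and radioligand for 1 hour at room temperature. Bound ligand was collected on 0.3% PEI-soaked filters, washed with cold 50 mM Tris-HCl pH 7.4, and counted by scintillation. Percent inhibition was computed against DMSO totals and reference-ligand nonspecific wells.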

Human melanocortin (MC5) = molecular target: T4, Human melanocortin (MC5) (Homo sapiens, UniProt P33032); experiment: Radioligand binding, human melanocortin MC5 membranes, FlashPlate, [125I]-NDP-αMSH; conditions: compound at 10 μM, [125I]-NDP-αMSH
T4 construct: purchased Perkin Elmer Biosignal
T4 sequence (P33032 whole entry): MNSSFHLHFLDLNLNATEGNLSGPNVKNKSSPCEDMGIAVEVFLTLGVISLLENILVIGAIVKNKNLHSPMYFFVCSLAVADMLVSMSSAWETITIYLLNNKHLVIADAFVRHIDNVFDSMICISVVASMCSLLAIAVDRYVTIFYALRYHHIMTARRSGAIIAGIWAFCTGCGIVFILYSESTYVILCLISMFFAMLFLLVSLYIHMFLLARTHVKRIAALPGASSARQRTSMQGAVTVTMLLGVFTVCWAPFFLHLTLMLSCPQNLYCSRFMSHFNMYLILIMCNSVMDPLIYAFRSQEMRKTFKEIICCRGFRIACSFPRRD
Procedure, shortened: as §1

Human Melanocortin (MC3) = molecular target: T5, Human Melanocortin (MC3) (Homo sapiens, UniProt P41968); experiment: Radioligand binding, human melanocortin MC3 membranes, FlashPlate, [125I]-NDP-αMSH; conditions: compound at 10 μM, [125I]-NDP-αMSH
T5 construct: purchased Perkin Elmer Biosignal
T5 sequence (P41968 whole entry): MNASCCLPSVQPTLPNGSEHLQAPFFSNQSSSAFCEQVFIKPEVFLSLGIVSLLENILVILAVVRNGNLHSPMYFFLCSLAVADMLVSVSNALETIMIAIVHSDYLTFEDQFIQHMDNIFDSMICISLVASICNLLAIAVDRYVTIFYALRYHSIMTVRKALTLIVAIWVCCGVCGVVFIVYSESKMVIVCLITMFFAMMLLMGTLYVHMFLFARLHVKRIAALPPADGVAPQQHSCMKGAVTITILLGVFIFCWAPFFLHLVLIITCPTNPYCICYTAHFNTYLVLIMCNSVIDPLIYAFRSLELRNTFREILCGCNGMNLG
Procedure, shortened: as §1

Human μ-opioid (MOP) = molecular target: T6, Human μ-opioid (MOP) (Homo sapiens, UniProt P35372); experiment: Radioligand binding, human μ-opioid (MOP) membranes, FlashPlate, [3H]-Naloxone; conditions: compound at 10 μM, [3H]-Naloxone
T6 construct: purchased Perkin Elmer Biosignal
T6 sequence (P35372 whole entry): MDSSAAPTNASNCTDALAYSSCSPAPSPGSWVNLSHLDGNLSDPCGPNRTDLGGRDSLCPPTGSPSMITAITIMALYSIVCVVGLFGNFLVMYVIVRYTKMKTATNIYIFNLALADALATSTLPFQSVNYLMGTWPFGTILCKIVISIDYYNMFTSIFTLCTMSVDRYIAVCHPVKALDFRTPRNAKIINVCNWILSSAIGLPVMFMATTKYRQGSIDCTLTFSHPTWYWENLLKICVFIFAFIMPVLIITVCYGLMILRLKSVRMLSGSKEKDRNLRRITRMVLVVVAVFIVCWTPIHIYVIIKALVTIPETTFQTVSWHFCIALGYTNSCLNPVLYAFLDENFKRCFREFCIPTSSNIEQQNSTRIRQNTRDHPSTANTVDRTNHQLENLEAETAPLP
Procedure, shortened: as §1

Human κ-Opioid (KOP) = molecular target: T7, Human κ-Opioid (KOP) (Homo sapiens, UniProt P41145); experiment: Radioligand binding, human κ-opioid (KOP) membranes, filtration, [3H]-Diprenorphine; conditions: compound at 10 μM, [3H]-Diprenorphine
T7 construct: purchased Perkin Elmer Biosignal
T7 sequence (P41145 whole entry): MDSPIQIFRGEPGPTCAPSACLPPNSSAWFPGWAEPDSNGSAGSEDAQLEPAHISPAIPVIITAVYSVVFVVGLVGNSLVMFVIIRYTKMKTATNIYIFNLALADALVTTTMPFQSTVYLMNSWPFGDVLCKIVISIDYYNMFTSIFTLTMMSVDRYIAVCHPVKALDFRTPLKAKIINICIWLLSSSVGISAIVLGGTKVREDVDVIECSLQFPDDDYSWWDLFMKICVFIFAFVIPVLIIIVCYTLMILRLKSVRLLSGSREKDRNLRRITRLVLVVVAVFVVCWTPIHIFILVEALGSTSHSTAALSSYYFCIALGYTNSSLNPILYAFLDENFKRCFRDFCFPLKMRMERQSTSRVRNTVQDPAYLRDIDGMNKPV
Procedure, shortened: as §2

Mouse urotensin (mUR2) = molecular target: T8, Mouse urotensin (mUR2) (Mus musculus, UniProt Q8VIH9); experiment: Radioligand binding, mouse urotensin mUR2 membranes, FlashPlate, [125I]-Urotensin II; conditions: compound at 10 μM, [125I]-Urotensin II
T8 construct: purchased Perkin Elmer Biosignal
T8 sequence (Q8VIH9 1-385): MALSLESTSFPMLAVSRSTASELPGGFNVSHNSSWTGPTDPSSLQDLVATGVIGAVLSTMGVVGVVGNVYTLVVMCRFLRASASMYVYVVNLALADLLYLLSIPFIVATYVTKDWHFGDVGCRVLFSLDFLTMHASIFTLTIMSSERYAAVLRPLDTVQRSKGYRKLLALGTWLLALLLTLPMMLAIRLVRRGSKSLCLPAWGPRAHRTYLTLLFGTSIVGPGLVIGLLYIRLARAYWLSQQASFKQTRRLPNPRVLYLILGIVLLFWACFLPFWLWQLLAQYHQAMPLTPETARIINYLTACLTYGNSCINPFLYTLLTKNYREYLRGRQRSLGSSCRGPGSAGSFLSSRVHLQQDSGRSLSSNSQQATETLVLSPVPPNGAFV
Procedure, shortened: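 Cloned mouse urotensin (mUR2) receptor membranes from Perkin Elmer Biosignal were immobilized in FlashPlate microplates using a proprietary coating. Each well got 19.5 μl buffer, then 0.5 μl of DMSO, reference ligand, or compound. Adding 5 μl of [125I]-Urotensin II, diluted to 5× final concentration in binding buffer, started binding. Plates were sealed with TopSeal-A and incubated 1 hour at room temperature in the dark. Wells were counted for 30 seconds each on a TopCount after a 60-second delay, and percentage inhibition was calculated.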

[2] = molecular target: T9, Human melanin-concentrating hormone (MCH1) (Homo sapiens, UniProt Q99705); experiment: Radioligand binding, human melanin-concentrating hormone MCH1 membranes, FlashPlate, [125I]-S36057; conditions: compound at 10 μM
T9 construct: purchased Perkin Elmer Biosignal
T9 sequence (Q99705 whole entry): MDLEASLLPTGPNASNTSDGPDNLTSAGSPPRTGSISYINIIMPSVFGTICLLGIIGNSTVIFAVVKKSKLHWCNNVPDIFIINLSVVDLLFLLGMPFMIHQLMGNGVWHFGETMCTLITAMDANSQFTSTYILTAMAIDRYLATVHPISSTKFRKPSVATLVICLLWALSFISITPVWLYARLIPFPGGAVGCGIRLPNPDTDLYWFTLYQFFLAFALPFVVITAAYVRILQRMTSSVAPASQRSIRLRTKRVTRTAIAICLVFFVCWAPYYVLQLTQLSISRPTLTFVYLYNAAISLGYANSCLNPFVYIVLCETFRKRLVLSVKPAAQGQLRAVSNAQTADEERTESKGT
Procedure, shortened: as §1

Human Melanocortin (MC4) = molecular target: T10, Human Melanocortin (MC4) (Homo sapiens, UniProt P32245); experiment: Radioligand binding, human melanocortin MC4 membranes, FlashPlate, [125I]-NDP-αMSH; conditions: compound at 10 μM, [125I]-NDP-αMSH
T10 construct: purchased Perkin Elmer Biosignal
T10 sequence (P32245 whole entry): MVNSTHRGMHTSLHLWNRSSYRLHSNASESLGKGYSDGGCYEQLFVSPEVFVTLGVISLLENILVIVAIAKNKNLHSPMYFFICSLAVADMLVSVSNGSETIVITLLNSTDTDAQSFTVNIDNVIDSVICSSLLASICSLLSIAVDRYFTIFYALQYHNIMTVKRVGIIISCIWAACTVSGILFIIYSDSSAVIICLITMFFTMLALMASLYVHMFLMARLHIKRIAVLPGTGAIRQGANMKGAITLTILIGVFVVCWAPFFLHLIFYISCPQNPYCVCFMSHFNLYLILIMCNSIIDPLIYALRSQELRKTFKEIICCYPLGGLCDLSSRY
Procedure, shortened: as §1

Human opioid (ORL1) = molecular target: T11, Human opioid (ORL1) (Homo sapiens, UniProt P41146); experiment: Radioligand binding, human opioid ORL1 membranes, FlashPlate, [125I]-Nociceptin; conditions: compound at 10 μM, [125I]-Nociceptin
T11 construct: purchased Perkin Elmer Biosignal
T11 sequence (P41146 whole entry): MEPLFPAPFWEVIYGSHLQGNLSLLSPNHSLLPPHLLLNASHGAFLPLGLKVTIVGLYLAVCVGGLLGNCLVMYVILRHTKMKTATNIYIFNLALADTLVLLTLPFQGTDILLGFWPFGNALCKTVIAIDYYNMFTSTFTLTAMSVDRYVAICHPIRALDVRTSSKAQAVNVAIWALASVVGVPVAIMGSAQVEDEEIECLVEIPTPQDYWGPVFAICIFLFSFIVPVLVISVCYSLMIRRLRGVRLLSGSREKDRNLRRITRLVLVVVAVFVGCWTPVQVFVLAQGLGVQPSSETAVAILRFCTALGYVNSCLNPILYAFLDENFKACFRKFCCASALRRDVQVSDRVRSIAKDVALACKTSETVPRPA
Procedure, shortened: as §1

Row | Compound | A9: inhibition of radioligand binding ([1]; FlashPlate) | A1: inhibition of radioligand binding (Human δ-opioid (DOP); FlashPlate) | A8: inhibition of radioligand binding (Human neurokinin (NK1); filtration) | A5: inhibition of radioligand binding (Human melanocortin (MC5); FlashPlate) | A3: inhibition of radioligand binding (Human Melanocortin (MC3); FlashPlate) | A7: inhibition of radioligand binding (Human μ-opioid (MOP); FlashPlate) | A2: inhibition of radioligand binding (Human κ-Opioid (KOP); filtration) | A11: inhibition of radioligand binding (Mouse urotensin (mUR2); FlashPlate) | A6: inhibition of radioligand binding ([2]; [125I]-S36057, FlashPlate) | A4: inhibition of radioligand binding (Human Melanocortin (MC4); FlashPlate) | A10: inhibition of radioligand binding (Human opioid (ORL1); FlashPlate) | other results
1 | COCC1OC(OCCc2ccccc2)C(NC(=O)CN)C(OCc2ccc(-c3ccccc3)cc2)C1O (stereo not drawn) [compound 224] | − (“−” indicates less than 50% inhibition at 10 μM) | − (“−” indicates less than 50% inhibition at 10 μM) | + (“+” indicates greater than 50% inhibition at 10 μM) | − (“−” indicates less than 50% inhibition at 10 μM) | − (“−” indicates less than 50% inhibition at 10 μM) | − (“−” indicates less than 50% inhibition at 10 μM) | − (“−” indicates less than 50% inhibition at 10 μM) | − (“−” indicates less than 50% inhibition at 10 μM) | − (“−” indicates less than 50% inhibition at 10 μM) | − (“−” indicates less than 50% inhibition at 10 μM) | − (“−” indicates less than 50% inhibition at 10 μM) | 
2 | N=C(N)NCC(=O)NC1C(OCc2ccc(-c3ccccc3)cc2)OC(COCc2ccccc2)C(O)C1OCc1ccc(-c2ccccc2)cc1 (stereo not drawn) [compound 406] |  |  |  |  |  |  |  |  |  |  |  | A9: inhibition of radioligand binding ([1]; human NPY-Y1 membranes): − (“−” indicates less than 50% inhibition at 10 μM); A1: inhibition of radioligand binding (Human δ-opioid (DOP); human DOP membranes): − (“−” indicates less than 50% inhibition at 10 μM); A8: inhibition of radioligand binding (Human neurokinin (NK1); human NK1 membranes): + (“+” indicates greater than 50% inhibition at 10 μM); A5: inhibition of radioligand binding (Human melanocortin (MC5); human MC5 membranes): + (“+” indicates greater than 50% inhibition at 10 μM); A3: inhibition of radioligand binding (Human Melanocortin (MC3); human MC3 membranes): + (“+” indicates greater than 50% inhibition at 10 μM); A7: inhibition of radioligand binding (Human μ-opioid (MOP); human MOP membranes): − (“−” indicates less than 50% inhibition at 10 μM); A2: inhibition of radioligand binding (Human κ-Opioid (KOP); human KOP membranes): − (“−” indicates less than 50% inhibition at 10 μM); A11: inhibition of radioligand binding (Mouse urotensin (mUR2); mouse mUR2 membranes): − (“−” indicates less than 50% inhibition at 10 μM); A6: inhibition of radioligand binding ([2]; [125I]-S36057, human MCH1 membranes): − (“−” indicates less than 50% inhibition at 10 μM); A4: inhibition of radioligand binding (Human Melanocortin (MC4); human MC4 membranes): + (“+” indicates greater than 50% inhibition at 10 μM); A10: inhibition of radioligand binding (Human opioid (ORL1); human ORL1 membranes): + (“+” indicates greater than 50% inhibition at 10 μM)
3 | CSC1OC(COCc2ccc(Cl)cc2)C(O)C(OCc2ccccc2)C1NC(=O)CCNC(=N)N (stereo not drawn) [compound 254] | − (“−” indicates less than 50% inhibition at 10 μM) | − (“−” indicates less than 50% inhibition at 10 μM) | + (“+” indicates greater than 50% inhibition at 10 μM) | − (“−” indicates less than 50% inhibition at 10 μM) | − (“−” indicates less than 50% inhibition at 10 μM) | − (“−” indicates less than 50% inhibition at 10 μM) | − (“−” indicates less than 50% inhibition at 10 μM) | − (“−” indicates less than 50% inhibition at 10 μM) | − (“−” indicates less than 50% inhibition at 10 μM) | − (“−” indicates less than 50% inhibition at 10 μM) | − (“−” indicates less than 50% inhibition at 10 μM) | 
